From patent US20130178475A1, “sGC STIMULATORS” (IRONWOOD PHARMACEUTICALS, INC., priority 2010, published 2013)

Legend:
[1] = molecular target: T1, soluble guanylate cyclase (sGC) (Homo sapiens, UniProt Q02108+Q02153); experiment: sGC-HEK-cGMP assay; format: cell-based; conditions: HEK293 cells, 10 min incubation, intracellular cGMP by LC/MS; for Increase in cGMP Concentration Tested at 10 μM in HEK Assay: test compound 10 μM; for Increase in cGMP Concentration Tested at 30 μM in HEK Assay: test compound 30 μM
T1 construct: endogenously expressing soluble guanylate cyclase (sGC); endogenous in cells; host or cells: HEK293
T1 sequence (Q02153 1-619): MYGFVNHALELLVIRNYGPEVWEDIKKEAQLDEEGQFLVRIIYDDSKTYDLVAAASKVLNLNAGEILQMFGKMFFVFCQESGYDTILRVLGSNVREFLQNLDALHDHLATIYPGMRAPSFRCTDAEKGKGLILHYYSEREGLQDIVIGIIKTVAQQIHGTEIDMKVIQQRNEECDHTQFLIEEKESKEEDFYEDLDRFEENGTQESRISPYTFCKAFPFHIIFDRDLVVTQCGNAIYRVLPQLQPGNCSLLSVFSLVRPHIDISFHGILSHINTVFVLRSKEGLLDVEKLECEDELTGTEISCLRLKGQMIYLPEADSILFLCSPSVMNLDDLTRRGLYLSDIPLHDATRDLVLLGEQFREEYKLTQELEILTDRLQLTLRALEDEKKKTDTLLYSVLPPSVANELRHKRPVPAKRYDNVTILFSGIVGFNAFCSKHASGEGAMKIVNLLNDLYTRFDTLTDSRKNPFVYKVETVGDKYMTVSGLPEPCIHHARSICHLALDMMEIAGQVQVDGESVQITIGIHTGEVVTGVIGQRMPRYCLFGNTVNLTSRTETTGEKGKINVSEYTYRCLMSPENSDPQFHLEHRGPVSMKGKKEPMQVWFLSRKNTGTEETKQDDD
T1 sequence (Q02108 1-690): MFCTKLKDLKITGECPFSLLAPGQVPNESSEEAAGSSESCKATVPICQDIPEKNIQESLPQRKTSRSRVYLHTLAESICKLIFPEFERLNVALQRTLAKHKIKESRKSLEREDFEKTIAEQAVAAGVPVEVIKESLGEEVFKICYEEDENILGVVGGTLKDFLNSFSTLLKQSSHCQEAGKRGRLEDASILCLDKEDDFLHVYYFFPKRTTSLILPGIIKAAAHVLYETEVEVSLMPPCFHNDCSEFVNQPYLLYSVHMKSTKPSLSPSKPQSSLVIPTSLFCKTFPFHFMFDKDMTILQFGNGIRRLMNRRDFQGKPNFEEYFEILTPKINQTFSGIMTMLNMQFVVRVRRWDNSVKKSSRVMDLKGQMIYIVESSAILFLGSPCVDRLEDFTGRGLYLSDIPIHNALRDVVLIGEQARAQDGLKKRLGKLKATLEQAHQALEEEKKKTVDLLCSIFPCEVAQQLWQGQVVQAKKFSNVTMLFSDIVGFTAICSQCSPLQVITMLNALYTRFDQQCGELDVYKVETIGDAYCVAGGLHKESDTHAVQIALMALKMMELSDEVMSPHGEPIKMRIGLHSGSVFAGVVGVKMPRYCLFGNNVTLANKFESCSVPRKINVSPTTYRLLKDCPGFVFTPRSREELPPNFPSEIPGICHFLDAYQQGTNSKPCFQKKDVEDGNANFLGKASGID
Procedure: Human embryonic kidney cells (HEK293), endogenously expressing soluble guanylate cyclase (sGC), were used to evaluate the activity of test compounds. Compounds stimulating the sGC receptor should cause an increase in the intracellular concentration of cGMP. […] Cells were then incubated for 15 minutes at 37° C. with 0.5 mM 3-isobutyl-1-methylxanthine (2004). Test article was then added to the assay mixture (2 μL) and incubated at 37° C. for 10 minutes. After the 10 minute incubation, the assay mixture was aspirated and 0.1M HCl (2004) was added to the cells. The plate was incubated at 4° C. for 30 minutes in the 0.1M HCl to stop the reaction and lyse the cells. The plates were then centrifuged at 1,200 g for 5 minutes at room temperature. Supernatants were collected and transferred to a new flat bottom 96 well plate for analysis. Vehicle controls were carried out using DMSO (1%). A known sGC stimulator, BAY 41-2272, was used as the positive control.
Samples were diluted with an equal volume of 1 M Ammonium Acetate (pH 7) to neutralize samples for better chromatography. A 2×cGMP standard curve was prepared in 0.1 M HCl and then diluted with an equal volume of 1 M Ammonium Acetate, with the following final concentrations in nM: 1024, 512, 256, 128, 64, 32, 16, 8, 4, 2, 1.
cGMP concentrations were determined from each sample using the LC/MS conditions (Table 2 below) and calculated standard curve. EC50 values were calculated from concentration-response curves generated with GraphPad Prism Software.

thoracic aortic rings = experiment: Thoracic aortic rings assay; conditions: relaxation of male Sprague-Dawley rat aortic rings contracted with 100 ng/mL phenylephrine; read-out: EC50, thoracic aortic ring assay activity
Procedure: Thoracic aortic rings were dissected from anesthetized (isoflurane) male Sprague-Dawley rats weighing 275-299 g. Tissues were immediately transferred to ice-cold Krebs-Henseleit solution, which had been aerated with 95% O2 and 5% CO2 for 30 minutes. Following removal of connective tissue, aortic sections were cut into 4 rings (˜2 mm each) and suspended on 2 L-shaped hooks, with one hook fixed at the bottom of the tissue bath (Schuler Organ Bath, Harvard Apparatus) and the other connected to a force transducer (F30 Force Transducer, Harvard Apparatus). Baths contained Krebs Henseleit solution (10 mL) heated to 37° C. and aerated with 95% O2 and 5% CO2. Rings were brought to an initial tension of 0.3-0.5 g and gradually raised to a resting tension of 1.0 g over 60 minutes. Rings were rinsed with Krebs Henseleit solution (heated to 37° C. and aerated with 95% O2 and 5% CO2) at 15 minute intervals until a stable baseline was obtained. Rings were considered to be stable after a resting tension of 1.0 g was maintained (for approximately 10 minutes) without need for adjustment. Rings were then contracted with 100 ng/mL phenylephrine by adding 100 uL of a […] phenylephrine stock solution. Tissues achieving a stable contraction were then treated in a cumulative, dose dependent manner with test compounds prepared in dimethylsulfoxide (DMSO). In some cases, tissues were rinsed three times over a 5 minute period with Krebs-Heinseleit's solution (heated to 37° C. and aerated with 95% O2 and 5% CO2), allowed to stabilize at baseline, and then used for characterization of other test articles or DMSO effects. All data were collected using the HSE-ACAD software provided by Harvard Apparatus. Percent relaxation effects were calculated in Microsoft Excel using the recorded tension value of 100 ng/mL phenylephrine treatment as 0% inhibition and treatment with 100 μM 3-isobutyl-1-methylxanthine as 100% inhibition. EC50 values were calculated from concentration-response curves generated with GraphPad Prism Software.

EC50 (thoracic aortic rings) [nM]	Compound	Increase in cGMP Concentration Tested at 10 μM in HEK Assay [1]	Increase in cGMP Concentration Tested at 30 μM in HEK Assay [1]
1300	Fc1ccccc1Cn1nc(-c2ncccn2)c2c1CCCC2 [Compound I-1]	D (D represents an increase ranging from 20 fold to less than 50 fold)	D (D represents an increase ranging from 20 fold to less than 50 fold)
1200	Nc1ccnc(-c2nn(Cc3ccccc3F)c3c2CCC3)n1 [Compound I-3]	D (D represents an increase ranging from 20 fold to less than 50 fold)	E (E represents an increase ranging from 50 fold to less than 100 fold)
2000	Nc1ccnc(-c2nn(Cc3ccccc3F)c3c2CCCC3)n1 [Compound I-22]	D (D represents an increase ranging from 20 fold to less than 50 fold)	E (E represents an increase ranging from 50 fold to less than 100 fold)
1200	COC(=O)N(C)c1c(N)nc(-c2nn(Cc3ccccc3F)c3c2CCC3)nc1N [Compound I-37]	C (C represents an increase ranging from 10 fold to less than 20 fold)	B (B represents an increase ranging from 5 fold to less than 10 fold)
–	Fc1ccccc1Cn1nc(-c2cccnc2)c2c1CCCC2 [Compound I-48, 1-(2-fluorobenzyl)-3-(pyridin-3-yl)-4,5,6,7-tetrahydro-1H-indazole]	A (A represents no increase or an increase ranging from more than 0 fold to less than 5 fold)	A (A represents no increase or an increase ranging from more than 0 fold to less than 5 fold)
–	Fc1ccccc1Cn1nc(-c2ccncc2)c2c1CCCC2 [Compound I-49, 1-(2-fluorobenzyl)-3-(pyridin-4-yl)-4,5,6,7-tetrahydro-1H-indazole]	A (A represents no increase or an increase ranging from more than 0 fold to less than 5 fold)	A (A represents no increase or an increase ranging from more than 0 fold to less than 5 fold)
–	CS(=O)(=O)N1CCc2c(c(-c3ncccn3)nn2Cc2ccccc2F)C1 [Compound I-51, 1-(2-fluorobenzyl)-5-(methylsulfonyl)-3-(pyrimidin-2-yl)-4,5,6,7-tetrahydro-1H-pyrazolo[4,3-c]pyridine]	A (A represents no increase or an increase ranging from more than 0 fold to less than 5 fold)	A (A represents no increase or an increase ranging from more than 0 fold to less than 5 fold)
–	CC(=O)N1CCc2c(c(-c3ncccn3)nn2Cc2ccccc2F)C1 [Compound I-52, 1-(1-(2-fluorobenzyl)-3-(pyrimidin-2-yl)-6,7-dihydro-1H-pyrazolo[4,3-c]pyridin-5(4H)-yl)ethanone]	A (A represents no increase or an increase ranging from more than 0 fold to less than 5 fold)	A (A represents no increase or an increase ranging from more than 0 fold to less than 5 fold)
–	O=S(=O)(c1ccccc1)N1CCc2c(c(-c3ncccn3)nn2Cc2ccccc2F)C1 [Compound I-53, 1-(2-fluorobenzyl)-5-(phenylsulfonyl)-3-(pyrimidin-2-yl)-4,5,6,7-tetrahydro-1H-pyrazolo[4,3-c]pyridine]	A (A represents no increase or an increase ranging from more than 0 fold to less than 5 fold)	A (A represents no increase or an increase ranging from more than 0 fold to less than 5 fold)
–	O=C(c1cccnc1)N1CCc2c(c(-c3ncccn3)nn2Cc2ccccc2F)C1 [Compound I-54]	A (A represents no increase or an increase ranging from more than 0 fold to less than 5 fold)	A (A represents no increase or an increase ranging from more than 0 fold to less than 5 fold)
–	O=C(c1ccncc1)N1CCc2c(c(-c3ncccn3)nn2Cc2ccccc2F)C1 [Compound I-55]	A (A represents no increase or an increase ranging from more than 0 fold to less than 5 fold)	A (A represents no increase or an increase ranging from more than 0 fold to less than 5 fold)
–	O=C(c1ccccn1)N1CCc2c(c(-c3ncccn3)nn2Cc2ccccc2F)C1 [Compound I-56]	A (A represents no increase or an increase ranging from more than 0 fold to less than 5 fold)	A (A represents no increase or an increase ranging from more than 0 fold to less than 5 fold)
–	COc1ccccc1C(=O)N1CCc2c(c(-c3ncccn3)nn2Cc2ccccc2F)C1 [Compound I-57]	B (B represents an increase ranging from 5 fold to less than 10 fold)	C (C represents an increase ranging from 10 fold to less than 20 fold)
–	COc1cccc(C(=O)N2CCc3c(c(-c4ncccn4)nn3Cc3ccccc3F)C2)c1 [Compound I-58]	A (A represents no increase or an increase ranging from more than 0 fold to less than 5 fold)	–
340 to 950	Nc1nc(-c2nn(Cc3ccccc3F)c3ncccc23)ncc1C1CC1 [Reference Cpd., BAY 41-2272, reference compound]	–	–
